Measured values reported in patent publication US20260000710A1, “Novel Treatments for Cardiovascular Related Disease” (priority 2022, published 2026).

Tested on: AIM+ and AIM− CD4+ T cells from peptide-expanded PBMCs
Assay: TCRβ CDR3 sequencing (immunoSEQ) of sorted AIM+ and AIM− CD4+ T cells;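 also: genomic DNA from sorted cells as template, amplification bias-controlled two-step multiplex PCR, APOB6 pool at 10 µg/ml per peptide, CD40 blocking antibody added before restimulation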
Format: cell-based, human
Conditions: for Log10 Odds Ratio: AIM+ vs AIM−; for No. of clone-specific productive templates, AIM+ CD4+ T (Total 16700) / No. of clone-specific productive templates, AIM− CD4+ T (Total 21770) / No. of clone-specific productive templates, AIM+ CD4+ T (Total 31354) / No. of clone-specific productive templates, AIM− CD4+ T (Total 48987) / No. of clone-specific productive templates, AIM+ CD4+ T (Total 25796) / No. of clone-specific productive templates, AIM− CD4+ T (Total 25928) / No. of clone-specific productive templates, AIM+ CD4+ T (Total 21697) / No. of clone-specific productive templates, AIM− CD4+ T (Total 49956) / No. of clone-specific productive templates, AIM+ CD4+ T (Total 18591) / No. of clone-specific productive templates, AIM− CD4+ T (Total 7206) / No. of clone-specific productive templates, AIM+ CD4+ T (Total 34927) / No. of clone-specific productive templates, AIM− CD4+ T (Total 45364): PBMCs expanded 14 days and restimulated 24 h with APOB6
Description: To examine the clonotypic identities of autoreactive CD4^+ T cells, the hypervariable TCRβ DR3 region was sequenced using a DNA-based sequencing technique^42 (Adaptive Biotechnologies), which have been used to profile clonal populations of other self-antigen specific T cells^43. PBMCs from six HLA-typed donors (demographics and HLA-II alleles in Tables 5, 6) were expanded (14-days) and restimulated (24 h) with the APOB6 pool. To isolate viable responder and non-responder CD4^+ T cells from the same pool of stimulated PBMCs (schematic in FIG. 15A, gating strategy in FIG. 151B), the inventors used the AIM assay protocol (FIGS. 2A to 2D).
As a second control, unexpanded PBMCs (day 0 samples), sorted into naïve, central memory (TCM) and effector memory (TEM) CD4^+ T cells, were used (gating strategy in FIG. 15C). This allowed tracing the APOB6-specific AIM^+ T cell clones in naïve and memory T cell lineages. Genomic DNA, isolated from sorted AIM^− and AIM^+ Day 14 samples and naïve, TCM and TEM Day 0 samples from six donors, was used as the starting material for TCRVβ sequencing (schematic in FIG. 15A) using an optimized two-step, amplification bias-controlled multiplex-PCR-based approach^42,44 (immunoSEQ Human TCRB Assay, Adaptive Biotechnologies).
For isolation of APOB epitope-specific CD4^+ T cells, PBMCs were expanded with the APOB6pool (10 μg/ml per peptide). On Day 14, cultured cells were washed and re-stimulated with APOB6 (10 μg/ml) for 24 h (AIM assay protocol). 1 μg/ml of CD40 blocking antibody was added 15 min before stimulation. At the end of the stimulation period, cells were washed with FACS buffer (PBS w/o Ca/Mg, 2% FCS). Day 14 (APOB6 expanded and restimulated) and Day 0 (ex vivo samples with no in vitro stimulation) PBMC samples from six donors were resuspended in a staining master mix containing anti-human Fc-Block (Biolegend), fixable viability dye and antibodies against T cell and non-T cell (Dump) surface markers, activation markers and memory markers (antibody details in Table 4). Viability dye was used at 1:1000 dilution, antibodies were used at a final dilution of 1:100 (activation markers) and 1:200 (other extracellular markers). […] Gates were set based on unstimulated and PHA-L stimulated negative and positive controls, respectively. Antigen-specific AIM^+ and non-specific control AIM^− CD4^+ T cells from Day 14 samples and naïve (CD45RA^+CCR7^+), central memory (CD45RA^−CCR7^+, TCM) and effector memory (CD45RA^−CCR7^−, TEM) CD4^+ T cells from Day 0 PBMCs were sorted into HEPES-containing buffer (PBS with 2% FBS and 0.025 M HEPES) using BD FACSAria flow cytometry sorters. Acquired data was analyzed with FlowJo software.
Genomic DNA was extracted from sorted cells using QIAamp DNA Micro Kit (QIAGEN) and sent to Adaptive Biotechnologies for survey-level TCRβ sequencing (depth ˜60,000 reads) using their established immunoSEQ platform^7. Briefly, highly variable CDR3 regions on somatically rearranged human TCRβ chains were amplified with a two-step multiplex PCR approach using optimized set of primers that target the VDJ region spanning each unique CDR3B. A synthetic repertoire containing all possible V/J templates is used as a built-in control to quantify and correct PCR amplification biases. Processing of raw Illumina sequence reads, filtering, demultiplexing, clustering and mapping of CDR3 sequences and annotation of VDJ genes using IMGT database sequences were performed at Adaptive Biotechnologies and made available for download and analysis.

Substance: CASSPADREETQYF: TCRβ CDR3 clone, TCRBV18-01+TCRBJ02-05, Donor 3
- Log10 Odds Ratio (Donor 3): 0.99
- No. of clone-specific productive templates, AIM+ CD4+ T (Total 16700) (Donor 3): 410
- No. of clone-specific productive templates, AIM− CD4+ T (Total 21770) (Donor 3): 56

Substance: CASTATESSPLHF: TCRβ CDR3 clone, TCRBV12-03/12-04+TCRBJ01-06, Donor 5
- Log10 Odds Ratio (Donor 5): 11.80
- No. of clone-specific productive templates, AIM+ CD4+ T (Total 31354) (Donor 5): 415
- No. of clone-specific productive templates, AIM− CD4+ T (Total 48987) (Donor 5): 0

Substance: CASSSSGSNYNEQFF: TCRβ CDR3 clone, TCRBV03-01/03-02+TCRBJ02-01, Donor 3
- Log10 Odds Ratio (Donor 3): 1.19
- No. of clone-specific productive templates, AIM+ CD4+ T (Total 16700) (Donor 3): 597
- No. of clone-specific productive templates, AIM− CD4+ T (Total 21770) (Donor 3): 52

Substance: CSVLQHEQYF: TCRβ CDR3 clone, TCRBV29-01+TCRBJ02-07, Donor 4
- Log10 Odds Ratio (Donor 4): 0.49
- No. of clone-specific productive templates, AIM+ CD4+ T (Total 25796) (Donor 4): 466
- No. of clone-specific productive templates, AIM− CD4+ T (Total 25928) (Donor 4): 153

Substance: CASSYSSGGGNEQFF: TCRβ CDR3 clone, TCRBV06-05+TCRBJ02-01, Donor 1
- Log10 Odds Ratio (Donor 1): 2.61
- No. of clone-specific productive templates, AIM+ CD4+ T (Total 21697) (Donor 1): 348
- No. of clone-specific productive templates, AIM− CD4+ T (Total 49956) (Donor 1): 2

Substance: CAWSVGGPGANSPLHF: TCRβ CDR3 clone, TCRBV30-01+TCRBJ01-06, Donor 2
- Log10 Odds Ratio (Donor 2): 1.16
- No. of clone-specific productive templates, AIM+ CD4+ T (Total 18591) (Donor 2): 369
- No. of clone-specific productive templates, AIM− CD4+ T (Total 7206) (Donor 2): 10

Substance: CATALAGGHEQYF: TCRβ CDR3 clone, TCRBV06-05+TCRBJ02-07, Donor 5
- Log10 Odds Ratio (Donor 5): 2.60
- No. of clone-specific productive templates, AIM+ CD4+ T (Total 31354) (Donor 5): 753
- No. of clone-specific productive templates, AIM− CD4+ T (Total 48987) (Donor 5): 3

Substance: CASSELGLNTDTQYF: TCRβ CDR3 clone, TCRBV06-01+TCRBJ02-03, Donor 4
- Log10 Odds Ratio (Donor 4): 1.11
- No. of clone-specific productive templates, AIM+ CD4+ T (Total 25796) (Donor 4): 2236
- No. of clone-specific productive templates, AIM− CD4+ T (Total 25928) (Donor 4): 190

Substance: CASRTTTGFLSPLHF: TCRβ CDR3 clone, TCRBV27-01+TCRBJ01-06, Donor 3
- Log10 Odds Ratio (Donor 3): 1.86
- No. of clone-specific productive templates, AIM+ CD4+ T (Total 16700) (Donor 3): 273
- No. of clone-specific productive templates, AIM− CD4+ T (Total 21770) (Donor 3): 5

Substance: CASSELGTRPNEQFF: TCRβ CDR3 clone, TCRBV10-01+TCRBJ02-01, Donor 4
- Log10 Odds Ratio (Donor 4): 2.76
- No. of clone-specific productive templates, AIM+ CD4+ T (Total 25796) (Donor 4): 558
- No. of clone-specific productive templates, AIM− CD4+ T (Total 25928) (Donor 4): 1

Substance: CASSLYAGQNTEAFF: TCRβ CDR3 clone, TCRBV07-02+TCRBJ01-01, Donor 6
- Log10 Odds Ratio (Donor 6): 2.35
- No. of clone-specific productive templates, AIM+ CD4+ T (Total 34927) (Donor 6): 344
- No. of clone-specific productive templates, AIM− CD4+ T (Total 45364) (Donor 6): 2

Substance: CASSPQPSTDTQYF: TCRβ CDR3 clone, TCRBV07-08+TCRBJ02-03, Donor 4
- Log10 Odds Ratio (Donor 4): 1.60
- No. of clone-specific productive templates, AIM+ CD4+ T (Total 25796) (Donor 4): 431
- No. of clone-specific productive templates, AIM− CD4+ T (Total 25928) (Donor 4): 11

Substance: CASSPRAGGAVREQYF: TCRβ CDR3 clone, TCRBV05-08+TCRBJ02-07, Donor 2
- Log10 Odds Ratio (Donor 2): 12.03
- No. of clone-specific productive templates, AIM+ CD4+ T (Total 18591) (Donor 2): 375
- No. of clone-specific productive templates, AIM− CD4+ T (Total 7206) (Donor 2): 0

Substance: CASRTIGQGSFNYGYTF: TCRβ CDR3 clone, TCRBV27-01+TCRBJ01-02, Donor 1
- Log10 Odds Ratio (Donor 1): 2.78
- No. of clone-specific productive templates, AIM+ CD4+ T (Total 21697) (Donor 1): 257
- No. of clone-specific productive templates, AIM− CD4+ T (Total 49956) (Donor 1): 1

Substance: CASSLRTGIINEQFF: TCRβ CDR3 clone, TCRBV05-01+TCRBJ02-01, Donor 5
- Log10 Odds Ratio (Donor 5): 11.77
- No. of clone-specific productive templates, AIM+ CD4+ T (Total 31354) (Donor 5): 383
- No. of clone-specific productive templates, AIM− CD4+ T (Total 48987) (Donor 5): 0

Substance: CASRKTGSLYGYTF: TCRβ CDR3 clone, TCRBV27-01+TCRBJ01-02, Donor 5
- Log10 Odds Ratio (Donor 5): 11.80
- No. of clone-specific productive templates, AIM+ CD4+ T (Total 31354) (Donor 5): 411
- No. of clone-specific productive templates, AIM− CD4+ T (Total 48987) (Donor 5): 0

Substance: CSARADGQGYGYTF: TCRβ CDR3 clone, TCRBV20-X+TCRBJ01-02, Donor 3
- Log10 Odds Ratio (Donor 3): 1.73
- No. of clone-specific productive templates, AIM+ CD4+ T (Total 16700) (Donor 3): 996
- No. of clone-specific productive templates, AIM− CD4+ T (Total 21770) (Donor 3): 26

Substance: CASSDDLAANVLTF: TCRβ CDR3 clone, TCRBV13-01+TCRBJ02-06, Donor 2
- Log10 Odds Ratio (Donor 2): 1.61
- No. of clone-specific productive templates, AIM+ CD4+ T (Total 18591) (Donor 2): 411
- No. of clone-specific productive templates, AIM− CD4+ T (Total 7206) (Donor 2): 4

Substance: CASSPLLYSGNTIYF: TCRβ CDR3 clone, TCRBV07-02+TCRBJ01-03, Donor 3
- Log10 Odds Ratio (Donor 3): 12.09
- No. of clone-specific productive templates, AIM+ CD4+ T (Total 16700) (Donor 3): 347
- No. of clone-specific productive templates, AIM− CD4+ T (Total 21770) (Donor 3): 0

Substance: CASSLERGAYGYTF: TCRβ CDR3 clone, TCRBV07-02+TCRBJ01-02, Donor 6
- Log10 Odds Ratio (Donor 6): 2.81
- No. of clone-specific productive templates, AIM+ CD4+ T (Total 34927) (Donor 6): 963
- No. of clone-specific productive templates, AIM− CD4+ T (Total 45364) (Donor 6): 2

Substance: CSARVTGGGAHTGELFF: TCRβ CDR3 clone, TCRBV20-X+TCRBJ02-02, Donor 1
- Log10 Odds Ratio (Donor 1): 2.69
- No. of clone-specific productive templates, AIM+ CD4+ T (Total 21697) (Donor 1): 422
- No. of clone-specific productive templates, AIM− CD4+ T (Total 49956) (Donor 1): 2
